Consider four molecules from patent US20150216933A1, “HEMATOPOIETIC STEM CELL GROWTH FACTOR” (DUKE UNIVERSITY, priority 2008, published 2015).

Test [1] deals with PI 3-kinase. The format is cell-based, mouse. The source says: In order to determine a potential mechanism through which PTN mediates HSC expansion, an examination was made as to whether PTN altered pathways that are known to be affected by RPTPβ/ζ (Meng et al, Proc Natl Acad Sci USA 97: 2603-8 (2000), Stoica et al, J Biol Chem 276:16772-9 (2001), Landgraf et al, J Biol Chem 283:25036-45 (2008), Deuel et al, Arch Biochem Biophys 397:162-71 (2002)). Canonical PTN signaling occurs via binding and inactivation of RPTPβ/ζ (Meng et al, Proc Natl Acad Sci USA 97: 2603-8 (2000)), which can facilitate the tyrosine phosphorylation of several intracellular substrates, including Akt and β-catenin (Souttou et al, J Biol Chem 272:19588-93 (1997), Gu et al, FEBS Lett 581:382-8 (2007)). […] BM 34^− KSL cells were treated with TSF with and without 100 ng/mL PTN in the presence and absence of 10 μM wortmannin, a PI 3-kinase inhibitor (Souttou et al, J Biol Chem 272:19588-93 (1997)).

Test [2] deals with Bone marrow lineage negative (lin-) progenitor cells. Kind of test: 7 day culture of bone marrow lin- progenitor cells with individual cytokines or TSF with and without PTN. The conditions noted are these: 7 days, individual cytokine. It counts as cell-based. The method, then:
Bone marrow lineage negative (lin-) progenitor cells were placed in culture for 7 days with 20 ng/mL thromobopoietin (TPO), 120 ng/mL stem cell factor (SCF) or 50 ng/mL Flt-3 ligand or the combination of all 3 cytokines (TSF) with and without 100 ng/mL pleiotrophin (PTN).

For `COC[C@H]1OC(=O)c2coc3c2[C@@]1(C)C1=C(C3=O)[C@@H]2CCC(=O)[C@@]2(C)C[C@H]1OC(C)=O` [wortmannin], in test [1], the “reduction in BM KSL cell expansion compared to TSF+PTN alone” value is given as 8.1 fold and the “reduction in total cell expansion compared to TSF+PTN alone” value was found to be 3.4 fold.
As for “SCF: stem cell factor, 120 ng/mL, with or without PTN”, the “support of BM progenitor cells in culture” value (from here on “support”) in test [2] is “modest expansion”.
Turning to “thromobopoietin: cytokine, 20 ng/mL alone in culture”, in test [2], the “support” value is “Neither thromobopoietin alone nor Fit-3 ligand alone supported viable BM progenitor cells”.

B1: Fit-3 ligand: cytokine, 50 ng/mL alone in culture (protein, UniProt P49771 27-235, looked up)
Fms-related tyrosine kinase 3 …: TQDCSFQHSPISSDFAVKIRELSDYLLQDYPVTVASNLQDEELCGGLWRLVLAQRWMERLKTVAGSKMQGLLERVNTEIHFVTKCAFQPPPSCLRFVQTNISRLLQETSEQLVALKPWITRQNFSRCLELQCQPDSSTLPPPWSPRPLEATAPTAPQPPLLLLLLLPVGLLLLAAAWCLHWQRTRRRTPRPGEQVPPVPSPQDLLLVEH
Turning to B1, the “support” value in test [2] is “Neither thromobopoietin alone nor Fit-3 ligand alone supported viable BM progenitor cells”.
